Test results published in publication PMC6943638, “Lectin PLL3, a Novel Monomeric Member of the Seven-Bladed β-Propeller Lectin Family” (Molecules, 2019).
Starred links: 1 amine or outer side, 2 acyl side, 3 side chain; linkers in the order of their positions; H or OH if unused. Residues, ends and D or L forms follow the SMILES beside them. Suc = O=C(CCC(=O)[*:2])[*:1]

What follows are compounds tested against PLL3 (Photorhabdus laumondii subsp. laumondii, UniProt Q7N8I7) (assay: Glycan array screening with DyLight 488-labeled PLL3). Settings: glycan array signal of DyLight 488-labeled PLL3 per immobilized glycan or bacterial polysaccharide.
Chain of PLL3 (Q7N8I7 entry or part of it): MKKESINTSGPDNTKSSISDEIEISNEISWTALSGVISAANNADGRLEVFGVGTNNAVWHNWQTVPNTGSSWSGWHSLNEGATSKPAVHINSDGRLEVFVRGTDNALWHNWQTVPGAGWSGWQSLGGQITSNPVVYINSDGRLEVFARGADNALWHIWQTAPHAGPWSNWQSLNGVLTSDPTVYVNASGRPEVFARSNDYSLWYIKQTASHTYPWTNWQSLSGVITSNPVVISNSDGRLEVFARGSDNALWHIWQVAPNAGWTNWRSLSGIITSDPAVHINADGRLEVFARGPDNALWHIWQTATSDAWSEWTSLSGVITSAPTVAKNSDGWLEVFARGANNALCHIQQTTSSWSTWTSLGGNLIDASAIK
Format: binding
Description: Purified PLL3 protein was labeled with DyLight 488 NHS Ester (Thermo Scientific, Rockford, MI, USA) according to the manual instructions of the manufacturer. The unbound dye was removed from the solution using the Zeba Spin Desalting Column (Thermo scientific). The labeled lectin was used for glycan array screening using a glycan microarray chip (Semiotik, Moscow, Russia; chip format OSPS280715; slide number 10085636) containing over 600 mammalian and bacterial glycans (all in hexaplicates). The glycan microarray chip was incubated in 1.0 mL of PBS buffer supplemented with 0.1% (v/v) Tween 20 and placed in a humid chamber for 15 min (37 °C, 40 rpm). Then, the buffer was replaced by 0.5 mL PLL3 (200 μg mL^−1) diluted in PBS buffer with 0.1% Tween 20 and 1% (w/v) bovine serum albumin (Serva, Germany). After incubation (90 min, 37 °C, 40 rpm), the chip was washed by decreasing concentrations of PBS with 0.1% Tween 20, followed by multiple immersions in ultrapure water. Subsequently, the chip was dried by air blow. Fluorescence was read with a scanner InnoScan 1100 AL (Innopsys, Carbonne, France) with a 488 nm laser at 20 °C. The data were analyzed with the software Mapix 8.2.2 and an online glycan chip converter (Semiotik, https://rakitko.shinyapps.io/semiotik). The relative fluorescent response of PLL3 binding was calculated from hexaplicates of each glycan immobilized onto the chip. Only glycans with a response three or more times higher than trehalose and concurrently with a signal-to-noise ratio higher than two were considered as significant binders.

Compound	Median
NCCOCCOCCOCCOCCOCCOCC(=O)NCCOC1OC(COC2OC(COC3OC(CO)C(O)C3OC3OC(CO)C(O)C3O)C(OC3OC(CO)C(O)C3OC3OC(CO)C(O)C3O)C2O)C(O)C1O (stereo not shown)	220
CC(=O)N[C@@H]1C(O)C[C@](O[C@@H]2C(O)[C@H](O[C@@H]3C(CO)OC(NC(=O)CN)C(O)[C@H]3O)OC(CO)[C@@H]2O)(C(=O)O)OC1[C@H](O)[C@H](O)CO (stereo partly shown) [3'SL-Gly]	101
CC(=O)N[C@H]1[C@H]([C@H](O)[C@H](O)CO)O[C@@](O[C@H]2[C@@H](O)[C@@H](CO)O[C@@H](O[C@H]3[C@H](O)[C@@H](NC(C)=O)C(O)O[C@@H]3CO)[C@@H]2O)(C(=O)O)C[C@@H]1O (stereo partly shown) [3'SLN]	43
COCC1OC(O)C(O)C(OC)C1O (stereo not shown) [3,6-Me2Glc]	74
CC(=O)N[C@H]1[C@H]([C@H](O)[C@H](O)CO)OC(OC[C@H]2O[C@@H](O[C@H]3[C@H](O)[C@@H](NC(C)=O)C(O)O[C@@H]3CO)[C@H](O)[C@@H](O)[C@H]2O)(C(=O)O)C[C@@H]1O (stereo partly shown) [6'SLN]	99
CC(=O)N[C@H]1[C@H]([C@H](O)[C@H](O)CO)O[C@@](O[C@H](CO)[C@@H](O)[C@@H]2O[C@@](O[C@H](CO)[C@@H](O)[C@@H]3O[C@](O)(C(=O)O)C[C@H](O)[C@H]3NC(C)=O)(C(=O)O)C[C@H](O)[C@H]2NC(C)=O)(C(=O)O)C[C@@H]1O [(Sia)3]	158
CC(=O)N[C@H]1[C@@H](O[C@H]2[C@@H](O)[C@@H](CO)OC(O)[C@@H]2O[C@@H]2O[C@@H](C)[C@@H](O)[C@@H](O)[C@@H]2O)O[C@H](CO)[C@H](O)[C@@H]1O (stereo partly shown) [Atri]	167
CC(=O)N[C@@H]1[C@@H](O)[C@H](O[C@@H]2O[C@H](CO)[C@H](O)[C@H](O[C@H]3O[C@H](CO)[C@H](O)[C@H](O)[C@H]3NC(C)=O)[C@H]2O[C@@H]2O[C@@H](C)[C@@H](O)[C@@H](O)[C@@H]2O)[C@@H](CO)O[C@H]1O [Atype2]	158
OC[C@H]1O[C@H](O[C@H]2[C@@H](O)[C@@H](CO)OC(O)[C@@H]2O)[C@H](O)[C@@H](O)[C@H]1O (stereo partly shown) [Bdi]	134
CC(=O)N[C@H]1[C@@H](OC[C@H](N)C(=O)O)O[C@H](CO)[C@H](O)[C@@H]1O [GalNAca1-OSer]	208
CC(=O)N[C@H]1[C@H](OCCCN)O[C@H](CO)[C@@H](O[C@@H]2O[C@H](CO)[C@H](O)[C@H](O)[C@H]2O)[C@@H]1O [Galb1-4GlcNAcb-sp8]	184
CC(=O)N[C@@H]1[C@@H](O)[C@H](O[C@@H]2O[C@H](CO)[C@@H](O)[C@H](O)[C@H]2NC(C)=O)[C@@H](CO)O[C@H]1NC(=O)C[C@H](N)C(=O)O [GlcNAcb1-4GlcNAcb-Asn]	277
NCC(O)C(O)C(O)C(O)CO (stereo not shown) [HOCH2(HOCH)4CH2NH2]	293
O=C[C@@H](O)[C@@H](O)[C@H](O)[C@H](O)COP(=O)(O)O [M6P]	148
CC(=O)N[C@H]1[C@H]([C@H](O)[C@H](O)CO)OC(O)(C(=O)O)C[C@@H]1O (stereo partly shown) [Sia]	112

Same assay, conditions: glycan array signal of DyLight 488-labeled PLL3 per printed glycan; Table S2, file PLU35_second_noheader.gpr

Compound	Median
O=P(O)(O)OC[C@H]1O[C@H](O)[C@H](O)[C@@H](O)[C@@H]1O [G6P]	615
NCC(=O)NCC(=O)NCC(=O)NCC(=O)NCC(=O)NCC(N)=O [Gly6]	530
C[C@@H]1O[C@@H](O[C@H]2[C@H](O[C@H]3[C@H](O)[C@@H](O)[C@H](O)O[C@@H]3CO)O[C@H](CO)[C@H](O)[C@@H]2O)[C@@H](O)[C@H](O)[C@@H]1O [Htype6]	474
CC(=O)N[C@H]1[C@H](O[C@H]2[C@@H](O)[C@@H](CO)O[C@@H](O[C@H]3[C@H](O)[C@@H](O)C(O)O[C@@H]3CO)[C@@H]2O)O[C@H](CO)[C@@H](O)[C@@H]1O[C@@H]1O[C@H](CO)[C@H](O)[C@H](O)[C@H]1O (stereo partly shown) [LNT]	349
CC(=O)N[C@H]1[C@H](O[C@H]2[C@@H](O)[C@@H](CO)O[C@@H](O[C@H]3[C@H](O)[C@@H](O)C(O)O[C@@H]3CO)[C@@H]2O)O[C@H](CO)[C@@H](O)[C@@H]1O[C@@H]1O[C@H](CO)[C@H](O)[C@H](O[C@]2(C(=O)O)C[C@H](O)[C@@H](NC(C)=O)[C@H]([C@H](O)[C@H](O)CO)O2)[C@H]1O (stereo partly shown) [LSTa]	328
CC(=O)N[C@H]1[C@H](O[C@H]2[C@@H](O)[C@@H](CO)O[C@@H](O[C@@H]([C@H](O)[C@@H](O)C=O)[C@H](O)CO)[C@@H]2O)O[C@H](CO[C@]2(C(=O)O)C[C@H](O)[C@@H](NC(C)=O)[C@H]([C@H](O)[C@H](O)CO)O2)[C@@H](O)[C@@H]1O[C@@H]1O[C@H](CO)[C@H](O)[C@H](O)[C@H]1O [LSTb]	348
CCCCCn1ccc2ccccc21 [NpentylIndol]	872
CC(C)C[C@H](NC(=O)CCC(=O)O)C(=O)N1CCC[C@H]1C(=O)N[C@@H](Cc1c[nH]c2ccccc12)C(=O)N[C@@H](Cc1ccc(O)cc1)C(=O)N[C@@H](CCCNC(=N)N)C(=O)N[C@@H](C)C(=O)N1CCC[C@H]1C(=O)N[C@@H](CCCCN)C(N)=O [RhD] (Suc-LPWYRAPK-NH2)	563
OC[C@H]1O[C@H](O[C@H]2O[C@H](CO)[C@@H](O)[C@H](O)[C@H]2O)[C@H](O)[C@@H](O)[C@@H]1O [Treh]	2512
OC[C@H]1O[C@@H](O[C@H]2[C@H](O)[C@@H](O)[C@H](O)O[C@@H]2CO)[C@H](O)[C@@H](O)[C@@H]1O [cello]	672
Chitosan	1790
Curdlan	1158
Laminaran	417
Laminarin	954
Mannan	480
Scleroglucan	1150
